The test deals with T1, Lp-PLA2 (Homo sapiens, UniProt Q13093).
T1 construct: aliquoted and thawed 40 μL of pooled human plasma was previously added; from tissue; host or cells: pooled human plasma
T1 sequence (Q13093 22-441): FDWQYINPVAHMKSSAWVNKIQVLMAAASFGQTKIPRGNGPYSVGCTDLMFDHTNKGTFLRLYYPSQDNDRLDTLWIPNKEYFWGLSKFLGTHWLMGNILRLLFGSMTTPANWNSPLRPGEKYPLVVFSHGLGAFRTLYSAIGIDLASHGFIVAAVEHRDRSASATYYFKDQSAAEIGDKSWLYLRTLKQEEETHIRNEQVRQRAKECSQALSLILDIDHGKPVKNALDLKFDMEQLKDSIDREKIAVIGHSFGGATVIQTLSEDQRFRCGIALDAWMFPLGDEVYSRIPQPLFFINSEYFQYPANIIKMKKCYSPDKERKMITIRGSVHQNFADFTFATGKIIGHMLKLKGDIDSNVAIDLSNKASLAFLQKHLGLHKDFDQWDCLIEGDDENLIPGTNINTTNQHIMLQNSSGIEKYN
The test is described as follows: Lipoprotein-associated phospholipase A2 (Lp-PLA2) human plasma assay (Thio-PAF assay). Type of test: biochemical. To be noted: Lp-PLA2 human plasma assay (Thio-PAF), pooled human plasma, 30-min pre-incubation at room temperature. How it is done: Lipoprotein-Associated Phospholipase A2 (Lp-PLA2) Human Plasma Assay
The amount of sulfhydryl groups is continuously determined by the reaction with CPM (7-diethylamino-3-(4′-maleimidophenyl)-4-methylcoumarin), and the CPM is a maleimide of which fluorescence increases after Michael addition of sulfhydryl group. This assay can detect Lp-PLA2 activity in human plasma, as determined by specific inhibition of Lp-PLA2 inhibitors.
Thio-PAF assay was performed as quenched 75 μL assay. Compound source plate was prepared for each compound by preparing 1:3 (by volume) serial dilutions in pure DMSO in a 96-well microplate. The compound on the source plate was diluted 20-fold by transferring 3 μL of the compound from the compound source plate into a 96-well microplate pre-added with 57 μL of assay buffer by Rainin multichannel pipette. The assay buffer described above consisted of 50 mM HEPES, pH 7.4, 150 mM NaCl, 1 mM CHAPS. 1 μL of the 20-fold diluted compound was transferred by Rainin multichannel pipette into a 96-well Greiner 655076 (black) microplate to which aliquoted and thawed 40 μL of pooled human plasma was previously added. The plate was shaken for 20 seconds on a microplate shaker to mix well. After a 30-min pre-incubation at room temperature, 10 μL of substrate solution was added to the 96-well Greiner 655076 (black) microplate by Rainin multichannel pipette, in which the substrate solution contained 2.5 mM 2-thio-PAF [from ethanol stock], 32 μM CPM [from DMSO stock], and 3.2 mM NEM (N-ethylmaleimide) [freshly prepared in DMSO per experiment] in assay buffer consisting of 50 mM HEPES, pH 7.4; 150 mM NaCl; 1 mM CHAPS. After 2 min, the reaction was quenched with […] of 5% trifluoroacetic acid (TFA) in water. The plate was centrifuged at 2000 rpm for 1 minute. The plate was read at ex:380/em:485 using a Biotek Synergy H1 (H1MF) microplate reader. IC50 data, curves and QC analysis were performed using GraphPad Prism 6.0 and Excel.
On to `O=C(NCc1ccccc1)C12CN3c4cc(OCc5ccc(Oc6ccnc(C(F)(F)F)c6)c(F)c5)nc(=O)n4CC3(C1)C2` [Example 199, N-benzyl-3-((3-fluoro-4-((2-(trifluoromethyl)pyridin-4-yl)oxy)benzyl)oxy)-1-oxo-1H,6H, 9H-7,8a-methanopyrrolo[1′,2′:3,4]imidazo [1,2-c]pyrimidine-7(8H)-carboxamide], for which the IC50 was determined as 7.9 nM.
The value for `N#Cc1cc(COc2cc3n(c(=O)n2)C[C@]24CO[C@H](CN32)C4)ccc1Oc1ccc(Cl)c(C(F)(F)F)c1` [Example 18, 5-((((3S,11aR)-9-oxo-3,4-dihydro-1H,9H,11H-3,11a-methanopyrimido[6′,1′:2,3]imidazo[5,1-c][1,4]oxazin-7-yl)oxy)methyl)-2-(4-chloro-3-(trifluoromethyl)phenoxy) benzonitrile] was 3.5 nM; that for `O=c1nc(OCc2ccc(Oc3cnc(C(F)(F)F)nc3)c(F)c2)cc2n1CC13CCC(CC1)N23` [Example 128, 3-((3-fluoro-4-((2-(trifluoromethyl)pyrimidin-5-yl)oxy)benzyl)oxy)-7,8-dihydro-1H,6H,9H-6,8a-ethanopyrrolo[1′,2′:3,4] imidazo[1,2-c]pyrimidin-1-one] was 8.4 nM.
As to `O=c1nc(OCc2ccc(Oc3ccc(F)c(C(F)(F)F)c3)nc2)cc2n1C[C@@]13CO[C@@H](CN21)C3` [Example 32, (3R,11aS)-7-((6-(4-fluoro-3-(trifluoromethyl)phenoxy)pyridin-3-yl)methoxy)-3,4-dihydro-1H,9H,11H-3,11a-methanopyrimido[6′,1′:2,3] imidazo[5,1-c][1,4]oxazin-9-one], the IC50 was found to be 164 nM.
On to `O=c1nc(OCc2cc(F)c(Oc3cccc(F)c3)c(F)c2)cc2n1C[C@]13CO[C@H](CN21)C3` [Example 137], for which the IC50 came to 5.8 nM.
The value for `O=c1nc(OCCc2ccc(Oc3ccc(Cl)c(C(F)(F)F)c3)c(F)c2)cc2n1C[C@]13CO[C@H](CN21)C3` [Example 185] was 4.7 nM; that for `O=c1nc(OCc2cc(F)c(Oc3ccc(Cl)c(C(F)(F)F)c3)c(F)c2)cc2n1C[C@@]13CO[C@@H](CN21)C3` [Example 27, (3R,11aS)-7-((4-(4-chloro-3-(trifluoromethyl)phenoxy)-3,5-difluorobenzyl)oxy)-3,4-dihydro-1H,9H,11H-3,11a-methanopyrimido[6′,1′:2,3] imidazo[5,1-c][1,4]oxazin-9-one] was 2.5 nM.
As for `NC12CN3c4cc(OCc5ccc(Oc6ccnc(C(F)(F)F)c6)c(F)c5)nc(=O)n4CC3(C1)C2` [Example 202, 7-Amino-3-((3-fluoro-4-((2-(trifluoromethyl)pyridin-4-yl)oxy)benzyl)oxy)-7,8-dihydro-1H,6H,9H-7,8a-methanopyrrolo[1′,2′:3,4]imidazo[1,2-c]pyrimidin-1-one], the IC50 was 1.9 nM.
Consider `Cn1ccc(CN2C(=O)[C@]34C[C@H]2CN3c2cc(OCc3ccc(Oc5ccnc(C(F)(F)F)c5)c(F)c3)nc(=O)n2C4)n1` [Example 197, (3S,11aR)-7-((3-fluoro-4-((2-(trifluoromethyl)pyridin-4-yl)oxy)benzyl)oxy)-2-((1-methyl-1H-pyrazol-3-yl)methyl)-3,4-dihydro-9H, 11H-3,11a-methanopyrazino[1′2′:3,4]imidazo [1,2-c]pyrimidin-1,9(2H)-dione], for which the IC50 amounted to 2.9 nM.
With `O=c1nc(OCc2cc(F)c(Oc3cncc(C(F)(F)F)c3)c(F)c2)cc2n1C[C@@]13CO[C@@H](CN21)C3` [Example 29, (3R,11aS)-7-((3,5-difluoro-4-((5-(trifluoromethyl)pyridin-3-yl)oxy)benzyl)oxy)-3,4-dihydro-1H,9H,11H-3,11a-methanopyrimido[6′,1′:2,3] imidazo[5,1-c][1,4]oxazin-9-one], the IC50 came out at 3.4 nM.
To `N#CC12CN3c4cc(OCc5ccc(Oc6ccnc(C(F)(F)F)c6)c(F)c5)nc(=O)n4CC3(C1)C2` [Example 200, 3-((3-fluoro-4-((2-(trifluoromethyl)pyridin-4-yl)oxy)benzyl)oxy)-1-oxo-1H,6H,9H-7,8a-methanopyrrolo[1′,2′:3,4]imidazo[1,2-c] pyrimidine-7(8H)-carbonitrile] belongs 4.4 nM; to `O=c1nc(OCc2ccc(Oc3ccnc(C(F)(F)F)c3)c(F)c2)cc2n1CC13CC(CN21)C3` [Example 113, 3-((3-fluoro-4-((2-(trifluoromethyl)pyridin-4-yl)oxy)benzyl)oxy)-7,8-dihydro-1H,6H,9H-7,8a-methanopyrrolo[1′,2′:3,4] imidazo[1,2-c]pyrimidin-1-one], 5.7 nM.
`O=c1nc(OCCc2ccc(Oc3ccnc(C(F)(F)F)c3)cc2)cc2n1CC13CC(CN21)C3` [Example 111, 3-(4-((2-(trifluoromethyl)pyridin-4-yl)oxy)phenethoxy)-7,8-dihydro-1H,6H,9H-7,8a-methanopyrrolo[1′,2′:3,4] imidazo[1,2-c]pyrimidin-1-one]: the IC50 came to 11.4 nM.
For the compound `O=c1nc(OCc2ccc(Oc3ccc(C(F)(F)F)cc3)c(F)c2)cc2n1CC13CC(CN21)C3` [Example 129, 3-((3-fluoro-4-(4-(trifluoromethyl)phenoxy)benzyl)oxy)-7,8-dihydro-1H,6H,9H-7,8a-methanopyrrolo[1′,2′:3,4] imidazo[1,2-c]pyrimidin-1-one], the IC50 turned out to be 6.5 nM.
For the compound `O=c1nc(OCc2ccc(Oc3ccnc(C(F)(F)F)c3)c(F)c2)cc2n1CC13CC(C(F)F)(CN21)C3` [Example 139, 7-(difluoromethyl)-3-((3-fluoro-4-((2-(trifluoromethyl)pyridin-4-yl)oxy)benzyl)oxy)-7,8-dihydro-1H,6H,9H-7,8a-methanopyrrolo[1′,2′:3,4] imidazo[1,2-c]pyrimidin-1-one], the IC50 is 2.6 nM.
As for `CC12COCCN1c1cc(OCc3cc(F)c(Oc4cncc(C(F)(F)F)c4)c(F)c3)nc(=O)n1C2` (stereo not shown) [Example 80, 7-((3,5-difluoro-4-((5-(trifluoromethyl)pyridin-3-yl)oxy)benzyl)oxy)-11a-methyl-3,4,11,11a-tetrahydro-1H,9H-pyrimido[6′,1′:2,3]imidazo [5,1-c][1,4]oxazin-9-one], the half-inhibitory concentration (IC50) was determined as 3.3 nM.
In the case of `COc1c(OCc2ccc(F)c(F)c2)nc(=O)n2c1N1C[C@@H]3C[C@]1(CO3)C2` [Example 115, (3S,11aR)-7-((3,4-difluorobenzyl)oxy)-6-methoxy-3,4-dihydro-1H,9H,11H-3,11a-methanopyrimido[6′,1′:2,3] imidazo[5,1-c][1,4]oxazin-9-one], the IC50 was 5.2 nM.
Turning to `O=c1nc(OCc2cc(F)c(Oc3ccc(C(F)(F)F)nc3)c(F)c2)cc2n1C[C@]13CO[C@H](CN21)C3` [Example 9], the IC50 came to 6.5 nM.
As for `O=c1nc(OCc2cc(F)c(Oc3ccc(Cl)c(C(F)(F)F)c3)c(F)c2)cc2n1C[C@]13CO[C@H](CN21)C3` [Example 4, (3S,11aR)-7-((4-(4-chloro-3-(trifluoromethyl)phenoxy)-3,5-difluorobenzyl)oxy)-3,4-dihydro-1H,9H,11H-3,11a-methanopyrimido[6′-,1′:2,3] imidazo[5,1-c][1,4]oxazin-9-one], the IC50 worked out at 2.5 nM.
Consider `O=c1nc(OCc2ccc(Oc3ccnc(OC(F)(F)F)c3)c(F)c2)cc2n1CC13CC(CN21)C3` [Example 153], for which the IC50 worked out at 4.1 nM.
With `O=c1nc(OCc2ccc(Oc3ccc(Cl)c(C(F)(F)F)c3)c(F)c2)cc2n1C[C@]13CO[C@H](CN21)C3` [Example 14, (3S,11aR)-7-((4-(4-chloro-3-(trifluoromethyl)phenoxy)-3-fluorobenzyl)oxy)-3,4-dihydro-1H,9H,11H-3,11a-methanopyrimido[6′,1′:2,3] imidazo[5,1-c][1,4]oxazin-9-one], the IC50 came out at 4.6 nM.
For the compound `CCC12CCCN1c1cc(OCc3cc(F)c(Oc4cnc(C(F)(F)F)nc4)c(F)c3)nc(=O)n1C2` (stereo not shown) [Example 64, 3-((3,5-difluoro-4-((2-(trifluoromethyl)pyrimidin-5-yl)oxy)benzyl)oxy)-8a-ethyl-7,8,8a,9-tetrahydro-1H,6H-pyrrolo[1′,2′:3,4]imidazo [1,2-c]pyrimidin-1-one], the IC50 worked out at 22.6 nM.

By IC50 is commonly meant the point on the concentration scale where inhibition reaches its midpoint.

The record behind these values is patent US20230044787A1, “TRICYCLE DIHYDROIMIDAZOPYRIMIDONE DERIVATIVE, PREPARATION METHOD THEREOF, PHARMACEUTICAL COMPOSITION AND USE THEREOF” (priority 2019, published 2023).
